Common to all, as to assay: DTP human tumour cell line panel, 48 h
The test system of assay [1] is NCI-H226 lung.
Assay [2] deals with RXF 393 renal.
For assay [3], the system named is K-562 leukemia.
The subject of assay [4] is LOX IMVI melanoma.
Assay [5] has as its system HOP-92 NSCLC.
For assay [6], the system named is SW-620 colon.
Assay [7] deals with U251 CNS.
The test system of assay [8] is SK-OV-3 ovarian.
In assay [9] the test system is SF-295 CNS.
Assay [10] relates to HOP-62 NSCLC.

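Test compounds were applied to cells in 96-well plates for 48 hours at 5 doses. GI50: concentration for 50% inhibition of growth. The concentration for full growth arrest is given as TGI.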 A value given as a limit tells only on which side of the number the result lay.

Consider twelve compounds from PubChem BioAssay (NCI).

`CCC[CH2][Sn]([CH2]CCC)([O]C(=O)C(N)CSC)[O]C(=O)C(N)CSC` (centres undefined): the GI50 was 20.5 µM in [1]; 6.83 µM in assay [2]; 0.846 µM in [3]; 7.17 µM in [4]; 8.05 µM in assay [5]; 6.08 µM in assay [6]. Besides, the GI50 in assay [7] is 11.3 µM. Besides, the TGI in [1] was 34.9 µM; in assay [2], 18.8 µM; in assay [3] it was 7.81 µM; in [4], 26.3 µM; in [5] it was 20.3 µM; in [6], 23 µM. Moreover, the TGI in assay [7] stood at 25.1 µM.
`CC[Si](CC)(CC)OC[C@]1([C@@H]2COC(C)(C)O2)CC=CC(=O)O1`: the GI50 was 59.9 µM in assay [8]; 48 µM in [2]; 34.6 µM in [3]; 25 µM in assay [4]; 19.7 µM in assay [5]; 35.2 µM in assay [9]. Moreover, the GI50 in assay [6] was 39.1 µM; in assay [10] it was 57.8 µM; in [7], 42.2 µM. The TGI in assay [8] is greater than 100 µM; in assay [2], greater than 100 µM; in assay [3] it was greater than 100 µM; in assay [4], 81 µM; in assay [5] it was greater than 100 µM; in assay [9], greater than 100 µM. Moreover, the TGI in [6], in [10] and in [7] was greater than 100 µM throughout.
As to `Cc1ccc(NC(=O)CCC/C(CC(=O)c2ccc(Br)cc2)=N/NC(=O)CC#N)cc1`, the TGI in assay [1], in assay [2], in assay [4], in assay [5], in [9] and in assay [6] was greater than 100 µM in each case. Also, the TGI in assay [10] and in assay [7] was greater than 100 µM throughout.
On to `CCCCc1ccc(-n2c3nc(=O)n(C)c(=O)c-3nc3ccccc32)cc1`, for which the TGI was greater than 100 µM in [8]; 26.6 µM in [1]; 34.1 µM in assay [2]; 33.6 µM in assay [3]; 23.1 µM in assay [9]; 19.8 µM in [6]. Also, the values for the TGI in assay [10] and in assay [7] were 32.6 µM and 23.5 µM, respectively.
Turning to `COC(=O)C12CC(c3ccccc31)C1C(=O)OC(=O)C12` (centres undefined), the TGI in assay [2], in assay [3], in [4], in [5], in assay [9] and in [6] was greater than 100 µM in each case. Also, the concentration for total growth inhibition (TGI) in assay [10] and in assay [7] was greater than 100 µM in each case.
For the compound `C[C@@H]1N=C(c2ccc(Br)cc2)Nc2nc3ccccn3c2C1=O`, the GI50 is 4.41 µM in assay [8]; 14.7 µM in assay [1]; 10.2 µM in assay [2]; 4.13 µM in [3]; 6.34 µM in [4]; 1.16 µM in assay [5]. Also, the results for the GI50 in assay [6], in assay [10] and in [7] were 3.75 µM, 5.75 µM and 6.64 µM, respectively. The TGI in [8] is greater than 100 µM; in [1], greater than 100 µM; in assay [2] it was 51.7 µM; in assay [3] it was greater than 100 µM; in assay [4], greater than 100 µM; in assay [5] it was 23 µM. Besides, the TGI in assay [6], in assay [10] and in assay [7] was greater than 100 µM in each case.
`O=c1[nH]c2c3ccccc3ccc2c2cc3c(cc12)OCO3`: the TGI in assay [8], in assay [1], in assay [2], in [3], in [4] and in assay [9] was greater than 100 µM each time. Further, the TGI in assay [6], in assay [10] and in [7] was greater than 100 µM throughout.
Turning to `CN(C)CC/C(=N\Nc1ccccc1)c1ccccc1`, the TGI in assay [8] is 34.7 µM; in [2] it was greater than 100 µM; in [3], 7.54 µM; in assay [5] it was 36.5 µM; in assay [9], 6.89 µM; in [10] it was 31 µM. The same compound gave a TGI in assay [7] greater than 100 µM.
As to `Cc1cc2cc3c(C)cc(=O)oc3c(C)c2o1`, the TGI in assay [1], in [2], in assay [3], in [4], in assay [5] and in [9] was greater than 100 µM throughout. The TGI in assay [6], in [10] and in assay [7] was greater than 100 µM throughout.
Turning to `COc1c(Cl)c2c(c(OC)c1OC)-c1ccc(SC)c(=O)cc1[C@@H](NC(=O)OCC(F)(F)F)CC2`, the GI50 in assay [8] is less than 0.01 µM; in assay [1] it was less than 0.01 µM; in [3], less than 0.01 µM; in [4], less than 0.01 µM; in assay [5] it was less than 0.0179 µM; in assay [9], less than 0.01 µM. For the same compound, the GI50 in [6], in assay [10] and in [7] was less than 0.01 µM in each case. In addition, the TGI was greater than 100 µM in assay [8]; 41.5 µM in [1]; greater than 100 µM in assay [3]; greater than 100 µM in assay [4]; 7.03 µM in [5]; 2.98 µM in assay [9]. Also, the total growth inhibition concentration (TGI) in assay [6] is greater than 100 µM; in assay [10], greater than 100 µM; in assay [7] it was greater than 39.2 µM.
Take `C=C(C)CN(CC#N)CC(=C)C`: the TGI in [8], in [1], in assay [2], in assay [3], in assay [4] and in [9] was greater than 100 µM each time. The TGI in [6], in assay [10] and in assay [7] was greater than 100 µM in each case.
On to `O=c1ccnc2c1ccc1[nH]cccc12`, for which the TGI in assay [8], in [1], in assay [2], in [3], in assay [4] and in assay [6] was greater than 100 µM each time. For the same compound, the TGI in assay [10] and in assay [7] was greater than 100 µM each time.

A word on the GI50: it is the concentration at which growth is held to half of that of the control. A word on the TGI: it is the concentration giving total growth inhibition. Lower therefore signals more potent growth arrest.
